This is an account of results in US20250084056A1, “SUBSTITUTED OXOISOINDOLINYL PIPERIDINE-2,6-DIONE COMPOUNDS” (BRISTOL-MYERS SQUIBB COMPANY, priority 2023, published 2025).

One experiment deals with GSPT1 (Homo sapiens, UniProt P15170+Q96SW2). The experiment can be described thus: GSPT1 Cellular Degradation Assay (DF15-GSPT1-ePL). It is filed as cell-based. Details: expressed in transfected cells. Conditions: DF15-GSPT1-ePL cells, 20 hours. In short, it runs like this:
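Human DF15 cells co-expressing a GSPT1–ePL fusion were treated with compound in RPMI 1640/10% FBS for 20 h at 37 °C. GSPT1 level was read by enzyme-fragment-complementation luminescence after 60 min with detection reagent. The reference degrader at […] defined 75% response; DC50 and Dmax were reported.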

The subject of experiment [1] is HCC1569 breast carcinoma xenograft model. The experiment can be described thus: In vivo xenograft tumor efficacy study, HCC1569. More on the design: species or system mice. Conditions: HCC1569 xenografts, repeated dosing. As to the method: The anti-cancer efficacy of Example 35 was evaluated in xenograft models by measuring the reduction in tumor volume in animals treated with Example 35 compared to vehicle control animals. First, 5-10×10^6 tumor cells/animal in a 1:1 Matrigel® mix (0.2 mL total volume) were injected subcutaneously into female NSG mice (for NIHOVCAR3) and SCID mice (for HCC1569). Both strains of mice were purchased from Jackson Laboratory. Once tumors reached ˜150-200 mm^3, animals were randomized into groups of 8-10 animals/treatment arm for efficacy studies. Example 35 was administered via oral gavage (PO) at indicated doses and regimens (Table 7). Tumor growth and body weight were measured twice/week during the course of the study to evaluate efficacy and signs of toxicity.
Example 35 was formulated in 10% ethanol, 10% Vitamin E—TPGS, 30% propylene glycol, 50% PEG400 and administered by oral gavage (final volume 0.2 mL) at the doses indicated in Table 7. […]
The efficacy for each treated arm at different dose levels were calculated using the following formula: % ΔT/ΔC=[(TVT−TVT0)/(TVC−TVC0)]×100%. […] The percentage of tumor growth inhibition was calculated from the formula: % TGI=[100%−(% ΔT/ΔC)]. […]
Example 35 was evaluated for in vivo single-agent efficacy against the HCC1569 breast carcinoma xenograft model and NIHOVCAR3 ovarian adenocarcinoma xenograft model.

The structures appear in SMILES notation.

As a reminder, the DC50 is the concentration at which degradation of the target reaches its halfway point. Low readings indicate a more potent degrader, high ones a less potent degrader. The Dmax is the largest share of the target that was removed. A high value points to a fuller loss of target.

Chain of GSPT1 (P15170 whole entry, the tested form may be a part): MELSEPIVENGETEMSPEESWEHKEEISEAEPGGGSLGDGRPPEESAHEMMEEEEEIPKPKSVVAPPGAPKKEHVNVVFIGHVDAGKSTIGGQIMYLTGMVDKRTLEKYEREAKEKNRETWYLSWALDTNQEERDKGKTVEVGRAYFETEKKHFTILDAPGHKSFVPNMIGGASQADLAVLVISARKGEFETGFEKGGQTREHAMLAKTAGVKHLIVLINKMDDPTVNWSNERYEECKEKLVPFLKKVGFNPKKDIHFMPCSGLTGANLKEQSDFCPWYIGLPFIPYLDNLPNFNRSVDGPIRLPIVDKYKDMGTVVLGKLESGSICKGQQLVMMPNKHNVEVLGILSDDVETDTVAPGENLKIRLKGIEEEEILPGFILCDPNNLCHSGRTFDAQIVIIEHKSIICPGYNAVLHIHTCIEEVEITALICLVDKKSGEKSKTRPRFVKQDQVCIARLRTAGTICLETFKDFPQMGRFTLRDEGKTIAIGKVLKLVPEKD
Chain of GSPT1 (Q96SW2 whole entry, the tested form may be a part): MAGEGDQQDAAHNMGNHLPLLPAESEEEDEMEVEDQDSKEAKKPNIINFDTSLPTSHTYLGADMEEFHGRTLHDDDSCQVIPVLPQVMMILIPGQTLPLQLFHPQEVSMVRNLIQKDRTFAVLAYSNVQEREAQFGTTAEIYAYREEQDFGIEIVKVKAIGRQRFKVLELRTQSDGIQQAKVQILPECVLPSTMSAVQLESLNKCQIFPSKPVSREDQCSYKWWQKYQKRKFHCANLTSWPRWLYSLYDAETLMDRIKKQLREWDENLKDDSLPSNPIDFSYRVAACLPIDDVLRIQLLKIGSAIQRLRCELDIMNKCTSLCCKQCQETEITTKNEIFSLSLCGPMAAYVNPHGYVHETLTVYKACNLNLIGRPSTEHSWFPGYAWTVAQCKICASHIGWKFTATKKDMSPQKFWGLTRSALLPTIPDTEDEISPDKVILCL
Chain of GSPT1 (Q16531 whole entry partner, the tested form may be a part): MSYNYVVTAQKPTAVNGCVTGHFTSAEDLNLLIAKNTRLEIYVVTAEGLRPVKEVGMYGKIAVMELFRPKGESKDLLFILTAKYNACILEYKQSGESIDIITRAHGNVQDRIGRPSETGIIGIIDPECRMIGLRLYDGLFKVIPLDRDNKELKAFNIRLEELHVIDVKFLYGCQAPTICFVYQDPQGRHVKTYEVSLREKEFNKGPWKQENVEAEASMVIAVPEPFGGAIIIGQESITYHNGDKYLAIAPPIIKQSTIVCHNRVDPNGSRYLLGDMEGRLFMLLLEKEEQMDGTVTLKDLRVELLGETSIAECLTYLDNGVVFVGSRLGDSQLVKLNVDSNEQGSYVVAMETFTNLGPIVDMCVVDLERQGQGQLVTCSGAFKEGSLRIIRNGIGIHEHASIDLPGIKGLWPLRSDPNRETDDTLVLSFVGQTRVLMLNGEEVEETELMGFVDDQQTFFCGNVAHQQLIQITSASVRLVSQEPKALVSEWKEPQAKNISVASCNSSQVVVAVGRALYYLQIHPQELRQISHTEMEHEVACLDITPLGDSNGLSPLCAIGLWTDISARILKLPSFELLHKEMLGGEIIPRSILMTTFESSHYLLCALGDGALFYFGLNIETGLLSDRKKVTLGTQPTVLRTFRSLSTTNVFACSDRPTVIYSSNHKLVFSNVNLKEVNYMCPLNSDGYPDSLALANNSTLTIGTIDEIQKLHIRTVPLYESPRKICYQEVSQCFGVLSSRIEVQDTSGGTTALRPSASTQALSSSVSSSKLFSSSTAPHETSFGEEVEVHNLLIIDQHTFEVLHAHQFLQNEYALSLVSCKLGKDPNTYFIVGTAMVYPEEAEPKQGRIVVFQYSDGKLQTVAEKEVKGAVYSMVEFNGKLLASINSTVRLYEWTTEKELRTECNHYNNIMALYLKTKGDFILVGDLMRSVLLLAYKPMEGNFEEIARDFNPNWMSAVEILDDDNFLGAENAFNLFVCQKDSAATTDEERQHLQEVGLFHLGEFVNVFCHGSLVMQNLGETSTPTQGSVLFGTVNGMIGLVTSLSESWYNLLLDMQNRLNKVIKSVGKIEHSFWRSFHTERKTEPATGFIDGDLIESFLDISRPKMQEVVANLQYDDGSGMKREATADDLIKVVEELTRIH

On GSPT1, `COc1c(COC(=O)Nc2ccc(Oc3ccc(F)c(F)c3)cc2)ccc2c1C(=O)N([C@H]1CCC(=O)NC1=O)C2` (single isomer, unassigned) [Example 35, {2-[(3 S)-2,6-dioxopiperidin-3-yl]-4-methoxy-3-oxo-2,3-dihydro-1H-isoindol-5-yl}methyl N-[4-(3,4-difluorophenoxy)phenyl]carbamate] had a half-maximal degradation concentration (DC50) of more than 14 µM and a Dmax of 46%. Further, in experiment [1], the anti-tumor activity entry was “dose-dependent anti-tumor activity”.
